# Earlier results as cited in publication PMC4365270 (Cancer Chemotherapy and Pharmacology, 2015).
# Design: method as in earlier work
# Conditions: higher doses; cited from earlier work
smiles,measurement,value
CC[C@H](NC(=O)[C@H](C)NC)C(=O)N1C[C@@H](O)C[C@H]1Cc1c(-c2[nH]c3cc(F)ccc3c2C[C@@H]2C[C@H](O)CN2C(=O)[C@H](CC)NC(=O)[C@H](C)NC)[nH]c2cc(F)ccc12 [birinapant],Bell’s Palsy syndrome,increased incidence
